What was measured:
Format in all cases: cell-based
[1] = test system: Wnt activity (SW480 colon carcinoma cells stably expressing the Sp5-Luc reporter gene); test: Sp5-Luc reporter gene screening assay for Wnt activity in SW480 cells; conditions: Homo sapiens, 42 h incubation, luminescence
Method in brief: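 SW480 cells stably carrying an Sp5 promoter (eight TCF/LEF sites)-luciferase reporter were plated overnight in 10% FCS medium. BrightGlo luminescence was normalised to DMSO wells, and IC50 was obtained by four-parameter fit.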

[2] = test system: primary human mesenchymal stem cells (hMSCs); test: Chondrogenesis induction screen in primary human mesenchymal stem cells; conditions: 6 days, chondrogenic nodules, dose range 10-2700 nM
Experimental: The above synthesized compounds were screened using primary human mesenchymal stem cells (hMSCs) to determine their ability to induce chondrogenesis (process by which cartilage is developed).
Primary human mesenchymal stem cells (hMSCs) were purchased from Lonza (Walkersville, Md.) and expanded in Mesenchymal Stem Cell Growth Media (Lonza). Cells between passage 3 and 6 were used for the experiments.
Each compound was dissolved in DMSO as a 10 mM stock and used to prepare compound source plates. Serial dilution (1:3, 6-point dose-response curves from 2700 nM to 10 nM) and compound transfer was performed using the ECHO 550 (Labcyte, Sunnyvale, Calif.) into 96-well clear bottom assay plates (Greiner Bio-One) with appropriate DMSO backfill for a final DMSO concentration of 0.03%. hMSCs were plated at 20,000 cells/well in 250 μL/well Incomplete Chondrogenic Induction Medium (Lonza; DMEM, dexamethasone, ascorbate, insulin-transferrin-selenium [ITS supplement], gentamycin-amphotericin [GA-1000], sodium pyruvate, proline and L-glutamine). TGF-β3 (10 ng/mL) was used as a positive control for differentiation while negative control wells were treated with 75 nL DMSO for normalization and calculating EC50 values. Cells were incubated at 37° C. and 5% CO2 for 6 days. To image chondrogenic nodules, the cells were fixed using 4% formaldehyde (Electron Microscopy Sciences), and stained with 2 μg/mL Rhodamine B (Sigma-Aldrich) and 20 μM Nile Red (Sigma-Aldrich) [Johnson K., et.al, A Stem Cell—Based Approach to Cartilage Repair, Science, (2012), 336(6082), 717-721]. The nodules imaged (4 images per well at 4× magnification) by excitation at 531 nm and emission at 625 nm and quantified using the CellInsight CX5 (Thermo Scientific). Number of nodules in each well was normalized to the average of 3 DMSO treated wells on the same plate using Excel (Microsoft Inc.). The normalized averages (fold change over DMSO) of 3 replicate wells for each compound concentration were calculated. Due to solubility limitations of some of the compounds, curve fitting was incomplete leading to inaccurate EC50 determinations.
Using TGF-β3 as a positive control, the concentration of test compounds required to induce equivalent levels of chondrogenesis is reported. In addition, the maximum activity of each compound and the respective dose that each compound reached maximum chondrogenesis activity is reported.

[3] = test system: primary human fibroblasts derived from IPF patients (LL29 cells); test: Inhibition of fibrosis (αSMA) in TGF-β1 treated primary human fibroblasts from IPF patients; conditions: Fibroblast, 96 h, TGF-β1 20 ng/mL, 4 days, % αSMA positive cells
Method in brief: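 IPF patient-derived LL29 lung fibroblasts in 1% FBS were treated with compound (11 points, 10 μM to 1.87 nM, 0.1% DMSO) and then 20 ng/mL TGF-β1 for 4 days at 37° C. Fraction of SYTOX-negative cells positive for αSMA was quantified by immunofluorescence imaging and normalized to TGF-β1 controls. EC50 came from non-linear regression over triplicate wells.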

Row | Structure (SMILES) | IC50 [1] | Conc (nM) of Max. activity [2] | EC50 [3]
1 | Cc1ccncc1-c1ccc2[nH]nc(-c3nc4c(-c5ccncc5)ccnc4[nH]3)c2c1 [Compound 109, 2-(5-(4-Methylpyridin-3-yl)-1H-indazol-3-yl)-7-(pyridin-4-yl)-3H-imidazo[4,5-b]pyridine] | 13.7 nM | 30 nM | 0.781 nM
2 | CCCCC(=O)Nc1cncc(-c2ccc3[nH]nc(-c4nc5c(-c6cc(F)cc(NCCN(C)C)c6)ccnc5[nH]4)c3c2)c1 [Compound 460, N-(5-(3-(7-(3-((2-(Dimethylamino)ethyl)amino)-5-fluorophenyl)-3H-imidazo[4,5-b]pyridin-2-yl)-1H-indazol-5-yl)pyridin-3-yl)pentanamide] | 11.6 nM | 30 nM | 0.111 nM
3 | Oc1cncc(-c2ccc3[nH]nc(-c4nc5c(-c6cccc(F)c6)ccnc5[nH]4)c3c2)c1 [Compound 1885, 5-(3-(7-(3-Fluorophenyl)-3H-imidazo[4,5-b]pyridin-2-yl)-1H-indazol-5-yl)pyridin-3-ol] | 11 nM | 100 nM | 0.009 nM
4 | Nc1cncc(-c2ccc3[nH]nc(-c4nc5c(-c6ccccc6F)ccnc5[nH]4)c3c2)c1 [Compound 55, 5-(3-(7-(2-Fluorophenyl)-3H-imidazo[4,5-b]pyridin-2-yl)-1H-indazol-5-yl)pyridin-3-amine] | 1.8 nM | 30 nM | 0.017 nM
5 | Cc1ccc(-c2ccnc3[nH]c(-c4n[nH]c5ccc(-c6cncc(NC(=O)C(C)C)c6)cc45)nc23)s1 [Compound 373, N-(5-(3-(7-(5-Methylthiophen-2-yl)-3H-imidazo[4,5-b]pyridin-2-yl)-1H-indazol-5-yl)pyridin-3-yl)isobutyramide] | 6.4 nM | 30 nM | 0.045 nM
6 | CC(C)CC(=O)Nc1cncc(-c2ccc3[nH]nc(-c4nc5c(-c6cccc(F)c6)ccnc5[nH]4)c3c2)c1 [Compound 2, N-(5-(3-(7-(3-Fluorophenyl)-3H-imidazo[4,5-b]pyridin-2-yl)-1H-indazol-5-yl)pyridin-3-yl)-3-methylbutanamide] | 2 nM | 30 nM | 0.041 nM
7 | CC(C)Nc1cncc(-c2ccc3[nH]nc(-c4nc5c(-c6ccoc6)ccnc5[nH]4)c3c2)c1 [Compound 298, 5-(3-(7-(Furan-3-yl)-3H-imidazo[4,5-b]pyridin-2-yl)-1H-indazol-5-yl)-N-isopropylpyridin-3-amine] | 5 nM | 30 nM | 0.102 nM
8 | Fc1cccc(-c2ccnc3[nH]c(-c4n[nH]c5ccc(-c6cn[nH]c6)cc45)nc23)c1 [Compound 1875, 2-(5-(1H-Pyrazol-4-yl)-1H-indazol-3-yl)-7-(3-fluorophenyl)-3H-imidazo[4,5-b]pyridine] | 5 nM | 2700 nM | 0.009 nM
9 | Fc1cccc(-c2ccnc3[nH]c(-c4n[nH]c5ccc(-c6cncc(CN7CCC(F)(F)C7)c6)cc45)nc23)c1 [Compound 25, 2-(5-(5-((3,3-Difluoropyrrolidin-1-yl)methyl)pyridin-3-yl)-1H-indazol-3-yl)-7-(3-fluorophenyl)-3H-imidazo[4,5-b]pyridine] | < 1 nM | 30 nM | 0.099 nM
10 | CN(C)c1cncc(-c2ccc3[nH]nc(-c4nc5c(-c6cccc(F)c6)ccnc5[nH]4)c3c2)c1 [Compound 7, 5-(3-(7-(3-Fluorophenyl)-3H-imidazo[4,5-b]pyridin-2-yl)-1H-indazol-5-yl)-N,N-dimethylpyridin-3-amine] | < 1 nM | 100 nM | 0.066 nM
11 | CCCC(=O)Nc1cncc(-c2ccc3[nH]nc(-c4nc5c(-c6cc(F)cc(CNS(C)(=O)=O)c6)ccnc5[nH]4)c3c2)c1 [Compound 433, N-(5-(3-(7-(3-Fluoro-5-(methylsulfonamidomethyl)phenyl)-3H-imidazo[4,5-b]pyridin-2-yl)-1H-indazol-5-yl)pyridin-3-yl)butyramide] | 3 nM | 2700 nM | > 10 nM
12 | CC(C)(C)C(=O)Nc1cncc(-c2ccc3[nH]nc(-c4nc5c(-c6ccc(F)s6)ccnc5[nH]4)c3c2)c1 [Compound 346, N-(5-(3-(7-(5-Fluorothiophen-2-yl)-3H-imidazo[4,5-b]pyridin-2-yl)-1H-indazol-5-yl)pyridin-3-yl)pivalamide] | 0.4 nM | 300 nM | 0.009 nM
13 | CCCC(=O)Nc1cncc(-c2ccc3[nH]nc(-c4nc5c(-c6ccsc6)ccnc5[nH]4)c3c2)c1 [Compound 277, N-(5-(3-(7-(Thiophen-3-yl)-3H-imidazo[4,5-b]pyridin-2-yl)-1H-indazol-5-yl)pyridin-3-yl)butyramide] | 1 nM | 30 nM | 0.016 nM
14 | c1cncc(-c2ccc3[nH]nc(-c4nc5c(-c6cccnc6)ccnc5[nH]4)c3c2)c1 [Compound 82, 7-(Pyridin-3-yl)-2-(5-(pyridin-3-yl)-1H-indazol-3-yl)-3H-imidazo[4,5-b]pyridine] | 3.5 nM | 10 nM | 0.303 nM
15 | c1cc(-c2ccoc2)c2nc(-c3n[nH]c4ccc(-c5cncc(CNCC6CCCC6)c5)cc34)[nH]c2n1 [Compound 310, 1-Cyclopentyl-N-((5-(3-(7-(furan-3-yl)-3H-imidazo[4,5-b]pyridin-2-yl)-1H-indazol-5-yl)pyridin-3-yl)methyl)methanamine] | 1270 nM | – | 9.99 nM
16 | CN(C)c1cncc(-c2ccc3[nH]nc(-c4nc5c(-c6ccccc6F)ccnc5[nH]4)c3c2)c1 [Compound 59, 5-(3-(7-(2-Fluorophenyl)-3H-imidazo[4,5-b]pyridin-2-yl)-1H-indazol-5-yl)-N,N-dimethylpyridin-3-amine] | 31.9 nM | – | 0.009 nM
17 | Cc1ccncc1-c1ccc2[nH]nc(-c3nc4c(-c5ccsc5)ccnc4[nH]3)c2c1 [Compound 265, 2-(5-(4-Methylpyridin-3-yl)-1H-indazol-3-yl)-7-(thiophen-3-yl)-3H-imidazo[4,5-b]pyridine] | 9.4 nM | – | 0.131 nM
18 | CC(C)C(=O)Nc1cncc(-c2ccc3[nH]nc(-c4nc5c(N6CCN(C)CC6)ccnc5[nH]4)c3c2)c1 [Compound 217, N-(5-(3-(7-(4-Methylpiperazin-1-yl)-3H-imidazo[4,5-b]pyridin-2-yl)-1H-indazol-5-yl)pyridin-3-yl)isobutyramide] | 173 nM | – | 2.83 nM
19 | O=C(Nc1cncc(-c2ccc3[nH]nc(-c4nc5c(N6CCCCC6)ccnc5[nH]4)c3c2)c1)C1CC1 [Compound 175, N-(5-(3-(7-(Piperidin-1-yl)-3H-imidazo[4,5-b]pyridin-2-yl)-1H-indazol-5-yl)pyridin-3-yl)cyclopropanecarboxamide] | 99.3 nM | – | 9.99 nM
20 | CC(C)C(=O)Nc1cncc(-c2ccc3[nH]nc(-c4nc5c(-c6ccoc6)ccnc5[nH]4)c3c2)c1 [Compound 295, N-(5-(3-(7-(Furan-3-yl)-3H-imidazo[4,5-b]pyridin-2-yl)-1H-indazol-5-yl)pyridin-3-yl)isobutyramide] | 5.1 nM | – | 0.405 nM
21 | CN(C)Cc1cncc(-c2ccc3[nH]nc(-c4nc5c(-c6cccc(F)c6)ccnc5[nH]4)c3c2)c1 [Compound 13, 1-(5-(3-(7-(3 -Fluorophenyl)-3H-imidazo[4,5-b]pyridin-2-yl)-1H-indazol-5-yl)pyridin-3-yl)-N,N-dimethylmethanamine] | 116 nM | – | 1.15 nM
22 | CN1CCN(c2ccnc3[nH]c(-c4n[nH]c5ccc(-c6cncc(CN7CCCCC7)c6)cc45)nc23)CC1 [Compound 223, 7-(4-Methylpiperazin-1-yl)-2-(5-(5-(piperidin-1-ylmethyl)pyridin-3-yl)-1H-indazol-3-yl)-3H-imidazo[4,5-b]pyridine] | 3070 nM | – | 0.009 nM
23 | Fc1cccc(-c2ccnc3[nH]c(-c4n[nH]c5ccc(-c6ccncc6)cc45)nc23)c1 [Compound 1888, 7-(3-Fluorophenyl)-2-(5-(pyridin-4-yl)-1H-indazol-3-yl)-3H-imidazo[4,5-b]pyridine] | > 10000 nM | – | 9.99 nM

Reference: patent publication US10280166B2, “2-(1H-indazol-3-yl)-3H-imidazo[4,5-B]pyridine and therapeutic uses thereof” (Samumed, LLC, priority 2014, dated 2019)
